Test results published in patent EP0745595A1, “3-(3-Aryloxyphenyl)-1-(substituted methyl)-s-triazine-2,4,6-oxo or thiotrione herbicidal agents” (American Cyanamid Company, priority 1995, dated 1996).

Assays:
Type in all cases: in vivo
[1] = test system: ABUTILON THEOPHRASTI, MEDIC.; experiment: Preemergence herbicidal evaluation, ABUTH (Velvetleaf); details: rated four to five weeks after treatment
Description: (§1) Results of herbicide evaluation are expressed on a rating scale (0-9). The scale is based upon a visual observation of plant stand, vigor, malformation, size, chlorosis and overall plant appearance as compared with a control.
(§2) The preemergence herbicidal activity of the test compounds of the present invention is exemplified by the following tests in which the seeds of a variety of monocotyledonous and dicotyledonous plants are separately mixed with potting soil and planted on top of approximately one inch of soil in separate pint cups. […] The treated cups are then placed on greenhouse benches, watered and cared for in accordance with conventional greenhouse procedures. From four to five weeks after treatment, the tests are terminated and each cup is examined and rated according to the rating system provided in Example 40.
(§3) The compounds evaluated are reported by compound number given in Example 40.

[2] = test system: AMBROSIA ARTEMISIIFOLIA, L.; experiment: Preemergence herbicidal evaluation, AMBEL (Ragweed, Common); details: rated four to five weeks after treatment
Description: as §1, §2, §3

CHENOPODIUM ALBUM, L. [3] = experiment: Preemergence herbicidal evaluation, CHEAL (Lambsquarters, Common); details: rated four to five weeks after treatment
Outline: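 Injury scored visually (0–9; stand, vigor, malformation, size, chlorosis) versus untreated control, four to five weeks post-treatment. Application: aqueous acetone spray onto freshly planted soil cups, equivalent to about 0.125 to 0.50 kg/ha, plants then kept under standard greenhouse care.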

[4] = test system: ECHINOCHLOA CRUS-GALLI, (L) BEAU; experiment: Preemergence herbicidal evaluation, ECHCG (Barnyardgrass); details: rated four to five weeks after treatment
Outline: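 In this preemergence herbicide test, cups holding seeds of ECHCG sown in potting soil over roughly one inch of soil were treated and then grown under conventional greenhouse care. Tests were ended four to five weeks after treatment, and injury was scored 0-9 from stand, vigor, malformation, size, chlorosis and overall appearance relative to a control.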

[5] = test system: TRITICUM AESTIVUM, CV. APOLLO; experiment: Preemergence herbicidal evaluation, TRZAWO (Wheat, Winter, CV. APOLLO); details: rated four to five weeks after treatment
Description: as §1, §2, §3

SAGITTARIA PYGMAEA, L. = experiment: Preemergence weed control under flooded paddy conditions, SAGPY (Arrowhead (Pygmaea)); details: preemergence, 3-4 weeks after treatment
Outline: (§4)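 Visual 0-9 rating against untreated control, covering stand, vigor, malformation, size and chlorosis, scored three to four weeks post-treatment in a greenhouse. Application was into 1.5-3 cm flood water over silt loam sown at 0.5 cm. The 50/50 v/v aqueous/acetone doses were about 0.5, 0.25, 0.125 and 0.063 kg/ha.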

[6] = test system: ORYZA SATIVA, L. TEBONNET; experiment: Rice tolerance to post-transplant applications under flooded paddy conditions, ORYSAT (Rice, Tebonnet); details: post-transplant rice, 3-4 weeks after treatment
Outline: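 Rated on a visual 0–9 scale against untreated plants 3–4 weeks after application, rice (cv. Tebonnet) tolerance was tested by applying compounds (approx. 0.5–0.063 kg/ha, acetone/water 50/50) to flooded soil three days post-transplant, water kept 1.5–3 cm deep.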

CHENOPODIUM ALBUM, L. [7] = experiment: Postemergence herbicidal evaluation, CHEAL (Lambsquarters, Common)
Outline: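 Postemergence herbicidal activity on Chenopodium album was tested by spraying two-week-old seedlings grown in jiffy flats with compound in acetone/water (50/50) plus 0.5% TWEEN®20, using a 40 psi nozzle. Four to five weeks after treatment, stand, vigor, malformation, size, chlorosis and overall appearance were scored 0-9 relative to controls, with repeat tests averaged.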

[8] = test system: ORYZA SATIVA, L. TEBONNET; experiment: Preemergence herbicidal evaluation, ORYSAT (Rice, Tebonnet); details: rated four to five weeks after treatment
Description: as §1, §2, §3

[9] = test system: CYPERUS SEROTINUS, ROTTB.; experiment: Preemergence weed control under flooded paddy conditions, CYPSE (Flatsedge); details: preemergence, 3-4 weeks after treatment
Outline: as §4

[…], PRESL. = Preemergence weed control under flooded paddy conditions, MOOVA (Monochoria); details: preemergence, 3-4 weeks after treatment
Outline: as §4

Which results are given for `Cn1c(=O)n(CC(=O)OC(C)(C)C)c(=O)n(-c2cc(Oc3c(F)cc(C(F)(F)F)cc3Cl)ccc2F)c1=O` [Compound 41, Tert-butyl 3-{[5-(2-chloro-α,α,α,6-tetra-fluoro-p-tolyl)oxy]-2-fluorophenyl}tetra-hydro-5-methyl-2,4,6-trioxo-s-triazine-1(2H)-acetate]?
ABUTH herbicidal rating ([1]; Rate 0.125 kg/ha): 0.0; ABUTH herbicidal rating ([1]; Rate 0.250 kg/ha): 0.0; ABUTH herbicidal rating ([1]; Rate 0.500 kg/ha): 0.0; AMBEL herbicidal rating ([2]; Rate 0.125 kg/ha): 0.0; AMBEL herbicidal rating ([2]; Rate 0.250 kg/ha): 0.0; AMBEL herbicidal rating ([2]; Rate 0.500 kg/ha): 0.0; CHEAL herbicidal rating (CHENOPODIUM ALBUM, L. [3]; Rate 0.125 kg/ha): 9.0; CHEAL herbicidal rating (CHENOPODIUM ALBUM, L. [3]; Rate 0.250 kg/ha): 9.0; CHEAL herbicidal rating (CHENOPODIUM ALBUM, L. [3]; Rate 0.500 kg/ha): 9.0; ECHCG herbicidal rating ([4]; Rate 0.125 kg/ha): 0.0; ECHCG herbicidal rating ([4]; Rate 0.250 kg/ha): 0.0; ECHCG herbicidal rating ([4]; Rate 0.500 kg/ha): 0.0; TRZAWO herbicidal rating ([5]; Rate 0.125 kg/ha): 0.0; TRZAWO herbicidal rating ([5]; Rate 0.250 kg/ha): 0.0; TRZAWO herbicidal rating ([5]; Rate 0.500 kg/ha): 0.0; Herbicidal effect rating, SAGPY (SAGITTARIA PYGMAEA, L.; 0.063 kg/ha): 0.0; Herbicidal effect rating, SAGPY (SAGITTARIA PYGMAEA, L.; 0.125 kg/ha): 0.0; Herbicidal effect rating, SAGPY (SAGITTARIA PYGMAEA, L.; 0.250 kg/ha): 0.0; Herbicidal effect rating, SAGPY (SAGITTARIA PYGMAEA, L.; 0.500 kg/ha): 0.0; Herbicidal effect rating, ORYSAT ([6]; 0.063 kg/ha): 0.0; Herbicidal effect rating, ORYSAT ([6]; 0.125 kg/ha): 0.0; Herbicidal effect rating, ORYSAT ([6]; 0.250 kg/ha): 0.0; Herbicidal effect rating, ORYSAT ([6]; 0.500 kg/ha): 0.0

For `COC(=O)Cn1c(=O)n(C)c(=O)n(-c2cc(Oc3cc(Cl)c(Cl)cc3Cl)ccc2[N+](=O)[O-])c1=O` [Compound 31, Methyl tetrahydro-3-methyl-5-[2-nitro-5-(2,4,5-trichlorophenoxy)phenyl]-2,4,6-trioxo-s-triazine-1(2H)-acetate], which CHEAL rating (CHENOPODIUM ALBUM, L. [7]; Rate 0.125 kg/ha) is on record?
Its CHEAL rating is 7.0.

What about the CHEAL rating (CHENOPODIUM ALBUM, L. [7]; Rate 0.250 kg/ha) of the same compound?
Its CHEAL rating is 7.0.

What about the CHEAL rating (CHENOPODIUM ALBUM, L. [7]; Rate 0.500 kg/ha) of the same compound?
The CHEAL rating was 7.0.

And the CHEAL herbicidal rating (CHENOPODIUM ALBUM, L. [3]; Rate 0.125 kg/ha)?
Its CHEAL herbicidal rating is 9.0.

And the CHEAL herbicidal rating (CHENOPODIUM ALBUM, L. [3]; Rate 0.250 kg/ha)?
The CHEAL herbicidal rating was 9.0.

And the CHEAL herbicidal rating (CHENOPODIUM ALBUM, L. [3]; Rate 0.500 kg/ha)?
The CHEAL herbicidal rating was 9.0.

And the ORYSAT herbicidal rating ([8]; Rate 0.125 kg/ha)?
Its ORYSAT herbicidal rating is 3.0.

What about the ORYSAT herbicidal rating ([8]; Rate 0.250 kg/ha) of the same compound?
The ORYSAT herbicidal rating was 3.0.

What about the ORYSAT herbicidal rating ([8]; Rate 0.500 kg/ha) of the same compound?
Its ORYSAT herbicidal rating is 3.0.

What about the “Herbicidal effect rating, CYPSE” value ([9]; 0.063 kg/ha) of the same compound?
The value was 0.0.

And the “Herbicidal effect rating, CYPSE” value ([9]; 0.125 kg/ha)?
The value was 0.0.

And the “Herbicidal effect rating, CYPSE” value ([9]; 0.250 kg/ha)?
The value was 0.0.

And the “Herbicidal effect rating, CYPSE” value ([9]; 0.500 kg/ha)?
The value was 0.0.

What about the “Herbicidal effect rating, MOOVA” value ([…], PRESL.; 0.063 kg/ha) of the same compound?
Its value is 0.0.

And the “Herbicidal effect rating, MOOVA” value ([…], PRESL.; 0.125 kg/ha)?
Its value is 0.0.

What about the “Herbicidal effect rating, SAGPY” value (SAGITTARIA PYGMAEA, L.; 0.063 kg/ha) of the same compound?
The value was 0.0.

What about the “Herbicidal effect rating, SAGPY” value (SAGITTARIA PYGMAEA, L.; 0.125 kg/ha) of the same compound?
The value was 0.0.

What about the “Herbicidal effect rating, SAGPY” value (SAGITTARIA PYGMAEA, L.; 0.250 kg/ha) of the same compound?
The value was 0.0.

And the “Herbicidal effect rating, SAGPY” value (SAGITTARIA PYGMAEA, L.; 0.500 kg/ha)?
The value was 0.0.

What about the “Herbicidal effect rating, ORYSAT” value ([6]; 0.063 kg/ha) of the same compound?
Its value is 0.0.

What about the “Herbicidal effect rating, ORYSAT” value ([6]; 0.125 kg/ha) of the same compound?
The value was 0.0.

And the “Herbicidal effect rating, ORYSAT” value ([6]; 0.250 kg/ha)?
The value was 1.0.

What about the “Herbicidal effect rating, ORYSAT” value ([6]; 0.500 kg/ha) of the same compound?
The value was 2.0.
